Assay results: patent US10329262B2, “Quinazolinone antibiotics” (priority 2013, dated 2019)

Columns and labels:
[1] = test system: S. aureus ATCC 29213 (MSSA); test: MIC, CLSI broth microdilution, S. aureus ATCC 29213; type: cell-based, Staphylococcus aureus
Procedure: (§1) MICs were evaluated following the CLSI microdilution method in BBL™ Mueller-Hinton II broth (Wikler et al., Clinical Laboratory Standards Institute Document M7-A7, 29 (2009)). Briefly, two-fold serial dilutions of compound were prepared in triplicate in 96-well plates and inoculated with 5×10^5 cfu/mL of the bacterial suspension. Plates were incubated at 37° C. for 16-20 hours.

[2] = test system: S. aureus VRS1; test: MIC, CLSI broth microdilution, S. aureus VRS1; type: cell-based, Staphylococcus aureus
Procedure: as §1

[3] = test system: S. haemolyticus ATCC 29970; test: MIC, CLSI broth microdilution, S. haemolyticus ATCC 29970; type: cell-based
Procedure: as §1

[4] = Metabolic stability in rat S9; type: in vitro ADME; details: rat S9, 2 μM
Procedure: Aliquots were taken at 0, 5, 10, 20, 30, 40, and 60 min, and mixed with two volumes of acetonitrile containing internal standard. The precipitated protein was centrifuged at 20,000 g for 15 min, and the supernatant was analyzed by reversed-phase UPLC.

[5] = test system: S. aureus (ATCC 29213); test: Macromolecular synthesis assays; type: cell-based, Staphylococcus aureus
Text: Mechanism of Action of the Quinazolinones. The mode of action of 2 was investigated by macromolecular synthesis assays in S. aureus in the logarithmic phase, which monitor incorporation of radiolabeled precursors [methyl-^3H]-thymidine, [5-^3H]-uridine, L-[4,5-^3H]-leucine, or D-[2,3-^3H]-alanine into DNA, RNA, protein, or cell wall (peptidoglycan), respectively. Inhibition of radiolabeled precursor incorporation by 2 at a concentration of half the MIC was compared with those of known inhibitors of each pathway (ciprofloxacin, rifampicin, tetracycline, and fosfomycin, respectively).
The mode of action of 2 was investigated by macromolecular synthesis assays in S. aureus in the logarithmic phase (Miller, A A et al. Antimicrob. Agents Chemother. 52, 2806-12 (2008)), which monitor incorporation of radiolabeled precursors [methyl-^3H]-thymidine, [5-^3H]-uridine, L-[4,5-^3H]-leucine, or D-[2,3-^3H]-alanine into DNA, RNA, protein, or cell wall (peptidoglycan), respectively.
The incorporation of radiolabeled precursors—[methyl-^3H]-thymidine, [5-^3H]-uridine, L-[4,5-^3H]-leucine, or D-[2,3-^3H]-alanine—into DNA, RNA, protein, or peptidoglycan, respectively, in logarithmically growing S. aureus (ATCC 29213) was measured using a previously published method, with aliquots taken every 20 min over a 120-min incubation period (Wilson et al., Antimicrob. Agents Chemother. 39, 1925-33 (1995)).

[6] = test system: T7 transcription; test: In vitro transcription assay (TranscriptAid T7 kit); type: biochemical
Text: For in vitro translation, the E. coli S30 Extract System for Circular DNA was used to set up the reactions using plasmid pCP19 containing the lacZ gene for β-galactosidase. Reaction mixtures were supplemented with two-fold dilutions of antibiotic 2 and the β-Galactosidase Enzyme Assay System with Reporter Lysis Buffer was used to quantify the amount of β-galactosidase translated by measuring absorbance at 420 nm. For in vitro transcription, a TranscriptAid T7 High Yield Transcription kit was used with a pET24a/dacB DNA construct under the T7 promoter. The purified plasmid was linearized using the restriction endonuclease XhoI and then purified according to the manufacturer's instructions. A series of samples were prepared and supplemented with two-fold dilutions of antibiotic 2. Samples were analyzed by running on a denaturing 1% formaldehyde agarose gel and stained with ethidium bromide to visualize RNA. Intensities of the bands were quantified and compared to the control to determine the amount of transcription occurring in the presence of 2.

[7] = target: T1, PBP1 (Staphylococcus aureus, UniProt Q53725); test: Bocillin FL competition assay, S. aureus membrane preparation; type: binding
T1 construct: Fluorescence labeling of S. aureus membrane preparation (150 μg) by Bocillin FL (30 μM); endogenous in cells; host or cells: S. aureus ATCC 29213 membrane preparation
Procedure: S. aureus (ATCC 29213), a methicillin-sensitive strain, was grown in Difco Luria-Bertani (LB) broth at 37° C. until an OD625˜0.8. Cells were centrifuged at 3,200 g for 30 min at 4° C. and washed once with cold 100 mM NaH2PO4, 50 mM NaHCO3, pH 7.5, buffer. The cells were resuspended in 10 mL cold buffer containing complete EDTA-free protease inhibitor, 200 μg/mL lysostaphin, 15 μg/mL DNase I, 10 mM MgCl2, and 1 mM EDTA and incubated for 30 min at 37° C. Cells were sonicated using a Branson Sonifer for 5×1 min cycles, with 2 min of rest in between each cycle, and the lysate was centrifuged at 3,200 g for 20 min at 4° C. The supernatant was then ultracentrifuged at 32,000 rpm for 1 h at 4° C. and the pellet was washed once with cold buffer. The resulting membrane was resuspended in buffer, quantified using the BCA Protein Assay Kit, and the concentration was adjusted to 9 mg/mL.
The Bocillin FL competition assays were performed with purified PBP2a and membrane extracts. PBP2a was purified using a previously described protocol (Fuda et al., J. Biol. Chem. 279, 40802-40806 (2004)). […] Samples were centrifuged, loaded to SDS-PAGE, the gels were visualized immediately using a Storm840 Scanner, and fluorescence was quantified using ImageQuant software. IC50 values were calculated using GraphPad prism 5, using the previously published equation.

T1 sequence (Q53725 1-744): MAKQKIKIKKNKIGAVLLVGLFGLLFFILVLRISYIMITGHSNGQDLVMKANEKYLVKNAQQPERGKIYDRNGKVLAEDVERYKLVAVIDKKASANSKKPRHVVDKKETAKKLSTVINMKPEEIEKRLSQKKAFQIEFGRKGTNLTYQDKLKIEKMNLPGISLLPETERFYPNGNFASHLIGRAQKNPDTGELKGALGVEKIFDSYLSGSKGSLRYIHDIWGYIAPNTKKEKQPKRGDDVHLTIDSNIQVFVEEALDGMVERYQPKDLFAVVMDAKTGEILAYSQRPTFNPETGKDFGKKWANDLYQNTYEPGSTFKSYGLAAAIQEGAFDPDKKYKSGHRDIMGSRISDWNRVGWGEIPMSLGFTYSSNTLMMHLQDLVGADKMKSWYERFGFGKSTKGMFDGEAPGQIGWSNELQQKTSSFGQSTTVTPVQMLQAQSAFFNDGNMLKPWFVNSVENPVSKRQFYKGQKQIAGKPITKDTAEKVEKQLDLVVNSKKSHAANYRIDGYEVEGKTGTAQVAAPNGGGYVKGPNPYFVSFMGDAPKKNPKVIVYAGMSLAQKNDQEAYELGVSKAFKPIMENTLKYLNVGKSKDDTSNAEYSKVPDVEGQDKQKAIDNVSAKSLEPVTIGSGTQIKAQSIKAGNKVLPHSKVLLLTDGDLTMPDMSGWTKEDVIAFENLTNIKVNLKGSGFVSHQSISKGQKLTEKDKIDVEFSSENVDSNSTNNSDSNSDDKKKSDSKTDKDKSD

## N#Cc1ccc(/C=C/c2nc3ccccc3c(=O)n2-c2cccc(C(=O)O)c2)cc1.[Na] [Compound 2, Sodium (E)-3-(3-carboxyphenyl)-2-(4-cyanostyryl)quinazolin-4(3H)-one]
[1]; Staphylococcus aureus
  MIC: 2 µg/mL
[1]; Table 2.1, S. aureus ATCC 29213
  In vitro AB activity (MIC): 2 µg/mL
[1]; with BSA vs without
  Increase of MIC in the presence of BSA: 4 fold
[2]; Staphylococcus aureus, VRS1
  MIC: 16 µg/mL
[2]; Table 2.1, S. aureus VRS1
  In vitro AB activity (MIC): 16 µg/mL
[3]; Staphylococcus haemolyticus, ATCC29970
  MIC: 1 µg/mL
[3]; Table 2.1, S. haemolyticus ATCC 29970
  In vitro AB activity (MIC): 1 µg/mL
[4]
  Compound remaining after 1-h incubation: 100%
[5]
  Effect on replication, transcription, or translation: did not significantly affect
  Inhibition of cell-wall (peptidoglycan) biosynthesis: 51±12%
[6]
  Inhibition of in vitro transcription: did not show any inhibition
[7]
  IC50: 187 µM
